Test results published in patent US10550116B2, “Fused bicyclic heterocycle derivatives as pesticides” (BAYER CROPSCIENCE AKTIENGESELLSCHAFT, priority 2015, dated 2020).

Key:
[1] = system: Ctenocephalides felis; assay: Ctenocephalides felis in vitro contact test with adult cat fleas; format: in vivo; conditions: application rate 5 μg/cm^2 (=500 g/ha), after 48 h
Method: For the coating of the test tubes, 9 mg of active ingredient are first dissolved in 1 ml of acetone p.a. and then diluted to the desired concentration with acetone p.a. 250 μl of the solution are distributed homogeneously on the inner walls and the base of a 25 ml test tube by turning and rocking on an orbital shaker (rocking rotation at 30 rpm for 2 h). With 900 ppm active ingredient solution and internal surface area 44.7 cm^2, given homogeneous distribution, an area-based dose of 5 μg/cm^2 is achieved. After the solvent has evaporated off, the tubes are populated with 5-10 adult cat fleas (Ctenocephalides felis), sealed with a perforated plastic lid and incubated in a horizontal position at room temperature and ambient humidity. After 48 h, efficacy is determined. To this end, the test tubes are stood upright and the fleas are knocked to the base of the tube. Fleas which remain motionless at the base or move in an uncoordinated manner are considered to be dead or moribund. […] 100% efficacy means that all the fleas were dead or moribund. 0% efficacy means that no fleas were harmed.

[2] = system: Spodoptera frugiperda; assay: Spodoptera frugiperda spray test; format: in vivo; conditions: foliar, 168 h, 500 g/ha, caterpillars on maize leaf discs, after 7 days, read-out: efficacy
Method: (§1) To produce a suitable active ingredient preparation, 1 part by weight of active ingredient is dissolved with the stated parts by weight of solvent and made up with water containing an emulsifier concentration of 1000 ppm until the desired concentration is attained. To produce further test concentrations, the preparation is diluted with emulsifier-containing water. Leaf discs of maize (Zea mays) are sprayed with an active ingredient preparation of the desired concentration and, after drying, populated with caterpillars of the armyworm (Spodoptera frugiperda). After 7 days, the efficacy in % is determined. 100% means that all the caterpillars have been killed; 0% means that no caterpillar has been killed.

[3] = system: Myzus persicae; assay: Myzus persicae spray test; format: in vivo; conditions: foliar, 100 g/ha, Chinese cabbage leaf discs, after 5-6 days, read-out: efficacy
Method: as §1, with “Discs” for “Leaf discs”, “Chinese cabbage leaves (Brassica pekinensis) infested by all stages of the green peach aphid (Myzus persicae)” for “maize (Zea mays)”, “concentration.” for “concentration and, after drying, populated with caterpillars of the armyworm (Spodoptera frugiperda).”, “5-6” for “7”, “aphids” for “caterpillars”, “aphids have” for “caterpillar has”

[4] = system: Ctenocephalides felis; assay: Ctenocephalides felis oral test; format: in vivo; conditions: 100 ppm in citrated cattle blood; adult cat fleas; after 2 days
Method: For the purpose of production of a suitable active ingredient preparation, 10 mg of active ingredient are mixed with 0.5 ml of dimethyl sulphoxide. Dilution with citrated cattle blood gives the desired concentration. About 20 unfed adult cat fleas (Ctenocephalides felis) are placed into a chamber which is closed at the top and bottom with gauze. A metal cylinder whose bottom end is closed with parafilm is placed onto the chamber. The cylinder contains the blood/active ingredient preparation, which can be imbibed by the fleas through the parafilm membrane. After 2 days, the kill in % is determined. 100% means that all of the fleas have been killed; 0% means that none of the fleas have been killed.

[5] = log P by HPLC on reversed-phase column (EEC Directive 79/831 Annex V.A8); format: physicochemical; conditions: reversed-phase C18 HPLC column; pH 7.8, aqueous ammonium hydrogencarbonate/acetonitrile; 55° C.; read-out: log P (neutral)
Method: The log P values are measured according to EEC Directive 79/831 Annex V.A8 by HPLC (high-performance liquid chromatography) on a reversed-phase column (C 18). Temperature: 55° C. The LC-MS determination in the acidic range is effected at pH 2.7 using 0.1% aqueous formic acid and acetonitrile (contains 0.1% formic acid) as eluents; linear gradient from 10% acetonitrile to 95% acetonitrile. Called log P (HCOOH) in the table. LC-MS determination in the neutral range is effected at pH 7.8 with 0.001 molar aqueous ammonium hydrogencarbonate solution and acetonitrile as eluents; linear gradient from 10% acetonitrile to 95% acetonitrile. Called log P (neutral) in the table. Calibration is carried out using unbranched alkan-2-ones (having 3 to 16 carbon atoms) with known log P values (log P values determined on the basis of the retention times by linear interpolation between two successive alkanones).

[6] = system: Meloidogyne incognita; assay: Meloidogyne incognita test; format: in vivo; conditions: 20 ppm; lettuce; after 14 days
Method: To produce a suitable preparation of active ingredient, 1 part by weight of active ingredient is mixed with the stated amount of solvent and the concentrate is diluted with water to the desired concentration. Vessels are filled with sand, active ingredient solution, an egg/larvae suspension of the southern root-knot nematode (Meloidogyne incognita) and lettuce seeds. The lettuce seeds germinate and the plants develop. The galls develop on the roots. After 14 days, the nematicidal efficacy in % is determined by the formation of galls. 100% means that no galls were found; 0% means that the number of galls on the treated plants corresponds to the untreated control.

[7] = system: Musca domestica; assay: Musca domestica test; format: in vivo; conditions: 4 ppm; adult houseflies; after 2 days
Method: To produce a suitable active ingredient preparation, 10 mg of active ingredient are mixed with 0.5 ml of dimethyl sulphoxide, and the concentrate is diluted with water to the desired concentration. Vessels containing a sponge treated with sugar solution and the active ingredient preparation of the desired concentration are populated with 10 adult houseflies (Musca domestica). After 2 days, the kill in % is determined. 100% means that all of the flies have been killed; 0% means that none of the flies have been killed.

[8] = system: Lucilia cuprina; assay: Lucilia cuprina test; format: in vivo; conditions: 100 ppm; L1 larvae; after 2 days
Method: To produce a suitable active ingredient preparation, 10 mg of active ingredient are mixed with 0.5 ml of dimethyl sulphoxide, and the concentrate is diluted with water to the desired concentration. About 20 L1 larvae of the Australian sheep blowfly (Lucilia cuprina) are transferred into a test vessel containing minced horsemeat and the active ingredient preparation of the desired concentration. After 2 days, the kill in % is determined. 100% means that all the larvae have been killed; 0% means that no larvae have been killed.

[9] = system: Phaedon cochleariae; assay: Phaedon cochleariae spray test; format: in vivo; conditions: foliar, 168 h, 500 g/ha, larvae on Chinese cabbage leaf discs, after 7 days, read-out: efficacy
Method: as §1, with “water. Discs” for “water. Leaf discs”, “of Chinese cabbage leaves (Brassica pekinensis)” for “of maize (Zea mays)”, “with larvae” for “with caterpillars”, “the mustard beetle (Phaedon cochleariae).” for “the armyworm (Spodoptera frugiperda).”, “the beetle larvae” for “the caterpillars”, “no beetle larvae have” for “no caterpillar has”

- chromatographic logP [5]: 2.75
SMILES: CCS(=O)(=O)c1cc2ccccc2nc1-c1nc2cc(C(F)(F)F)ncc2n1C [Example I-1, 3-Ethylsulphonyl-2-[3-methyl-6-(trifluoromethyl)imidazo[4,5-c]pyridin-2-yl]quinoline]
- efficacy [1]: 100%
- pest or weed control at 500 g/ha [2]: 100%
- pest or weed control at 100 g/ha [3]: 90%
- efficacy (kill) [4]: 100%
- nematicidal efficacy (formation of galls) [6]: 70%
- efficacy (kill) [7]: 75%
- efficacy (kill) [8]: 100%
- pest or weed control at 500 g/ha [9]: 100%
